Test results published in ChEMBL document CHEMBL4619755 (J Nat Prod, 2020).
Active and inactive are the calls of the source. No cut-off for these calls is given here.

What was measured:
THP-1 [1] = assay: Inhibition of TNF-alpha secretion in LPS-stimulated human THP1 cells assessed as TNF-alpha level at 10 uM incubated for 1 hr followed by nigericin addition and measured after 1 hr by ELISA (reference value: 957.6 pg/mL); assay type: functional
[2] = Cytotoxicity against human THP1 cells assessed as cell viability at 10 uM after 24 hrs by CellTiter-Glo luminescent cell viability assay relative to control; assay type: cell-based; details: THP-1 cells, read-out: Activity
[3] = molecular target: T1, P2X purinoceptor 7 (Homo sapiens) (UniProt Q99572); assay: Modulation of P2X7 receptor in nigericin-stimulated human THP1 cells assessed as intracellular potassium efflux at 10 uM incubated for 30 mins followed by 1 uM nigericin challenge and measured after 30 mins by Green-2 AM dye based flow cytometric analysis (reference value: 27.1%); assay type: cell-based; details: THP-1
T1 sequence (whole entry): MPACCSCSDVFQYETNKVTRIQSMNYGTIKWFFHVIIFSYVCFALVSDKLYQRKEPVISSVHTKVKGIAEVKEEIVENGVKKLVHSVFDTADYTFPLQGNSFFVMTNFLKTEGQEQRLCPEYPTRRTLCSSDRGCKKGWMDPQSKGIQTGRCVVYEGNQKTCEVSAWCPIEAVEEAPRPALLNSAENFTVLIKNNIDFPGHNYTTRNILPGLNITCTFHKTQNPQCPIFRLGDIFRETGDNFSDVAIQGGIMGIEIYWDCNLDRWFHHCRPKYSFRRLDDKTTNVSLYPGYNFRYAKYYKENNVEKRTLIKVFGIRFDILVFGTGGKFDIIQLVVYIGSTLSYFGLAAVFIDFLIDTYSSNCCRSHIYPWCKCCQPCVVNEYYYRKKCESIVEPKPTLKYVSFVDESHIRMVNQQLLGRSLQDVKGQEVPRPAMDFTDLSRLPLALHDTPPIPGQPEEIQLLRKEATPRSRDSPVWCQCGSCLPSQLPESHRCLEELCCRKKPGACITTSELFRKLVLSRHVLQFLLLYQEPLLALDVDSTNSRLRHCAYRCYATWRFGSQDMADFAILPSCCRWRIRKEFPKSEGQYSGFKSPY

THP-1 [4] = assay: Modulation of intracellular calcium release in LPS-stimulated human THP1 cells at 1 to 100 uM incubated for 1 hr followed by nigericin challenge and measured after 1 hr by Fluo-3dye based flow cytometric analysis; assay type: functional, cell-based
[5] = Cytotoxicity against human THP1 cells assessed as cell viability at 0.1 uM after 24 hrs by CellTiter-Glo luminescent cell viability assay relative to control; assay type: cell-based; details: THP-1 cells, read-out: Activity
THP-1 [6] = assay: Antiinflammatory activity in human THP1 cells assessed as reduction in LPS-induced IL-1beta secretion at 0.1 to 10 uM incubated for 1 hr followed by LPS stimulation and measured after 24 hrs by ELISA; assay type: functional, cell-based
[7] = Cytotoxicity against human THP1 cells assessed as cell viability at 100 uM after 24 hrs by CellTiter-Glo luminescent cell viability assay relative to control; assay type: cell-based; details: THP-1 cells, read-out: Activity
[8] = molecular target: T1, P2X purinoceptor 7 (Homo sapiens); assay: Modulation of P2X7 receptor in nigericin-stimulated human THP1 cells assessed as intracellular potassium efflux at 10 uM incubated for 30 mins followed by 5 uM nigericin challenge and measured after 30 mins by Green-2 AM dye based flow cytometric analysis (reference value: 27.1%); assay type: cell-based; details: THP-1
[9] = Cytotoxicity against human THP1 cells assessed as cell viability at 0.1 to 100 uM after 24 hrs in presence of LPS by CellTiter-Glo luminescent cell viability assay relative to control; assay type: cell-based; details: THP-1 cells, read-out: Activity
[10] = molecular target: T1, P2X purinoceptor 7 (Homo sapiens); assay: Modulation of P2X7 receptor in LPS-stimulated human THP1 cells assessed as LPS-nigericin-stimulated intracellular potassium efflux at 1 uM incubated for 1 hr followed by nigericin challenge and measured after 1 hr by Green-2 AM dye based flow cytometric analysis (reference value: 29%); assay type: cell-based; details: THP-1
THP-1 [11] = assay: Antiinflammatory activity in LPS-induced human THP1 cells assessed as IL-1beta secretion at 10 uM incubated for 1 hr followed by LPS stimulation and measured after 24 hrs by ELISA (reference value: 51.2 pg/mL); assay type: functional
[12] = molecular target: NACHT, LRR and PYD domains-containing protein 3 (Homo sapiens) (UniProt Q96P20); assay: Inhibition of NLRP3 inflammasome activation in LPS-stimulated human THP1 cells assessed as reduction in IL-1beta secretion at 10 uM incubated for 1 hr followed by nigericin addition and measured after 1 hr by ELISA relative to control; assay type: cell-based; details: THP-1
[13] = molecular target: NACHT, LRR and PYD domains-containing protein 3 (Homo sapiens) (UniProt Q96P20); assay: Inhibition of NLRP3 inflammasome activation in LPS-stimulated human THP1 cells assessed as reduction in IL-1beta secretion at 0.1 uM incubated for 1 hr followed by nigericin addition and measured after 1 hr by ELISA relative to control; assay type: cell-based; details: THP-1
[14] = molecular target: T1, P2X purinoceptor 7 (Homo sapiens); assay: Modulation of P2X7 receptor in LPS-stimulated human THP1 cells assessed as LPS-nigericin-stimulated intracellular potassium efflux at 10 uM incubated for 1 hr followed by nigericin challenge and measured after 1 hr by Green-2 AM dye based flow cytometric analysis (reference value: 29%); assay type: cell-based; details: THP-1
[15] = molecular target: NACHT, LRR and PYD domains-containing protein 3 (Homo sapiens) (UniProt Q96P20); assay: Inhibition of NLRP3 inflammasome activation in LPS-stimulated human THP1 cells assessed as reduction in IL-1beta secretion at 1 uM incubated for 1 hr followed by nigericin addition and measured after 1 hr by ELISA relative to control; assay type: cell-based; details: THP-1
[16] = molecular target: T1, P2X purinoceptor 7 (Homo sapiens); assay: Modulation of P2X7 receptor in nigericin-stimulated human THP1 cells assessed as intracellular potassium efflux at 10 uM incubated for 30 mins followed by 10 uM nigericin challenge and measured after 30 mins by Green-2 AM dye based flow cytometric analysis (reference value: 27.1%); assay type: cell-based; details: THP-1
[17] = Cytotoxicity against human THP1 cells assessed as cell viability at 1 uM after 24 hrs by CellTiter-Glo luminescent cell viability assay relative to control; assay type: cell-based; details: THP-1 cells, read-out: Activity

NACHT, LRR and PYD domains-containing protein 3 (Homo sapiens), sequence (Q96P20 whole entry, the tested form may be a part): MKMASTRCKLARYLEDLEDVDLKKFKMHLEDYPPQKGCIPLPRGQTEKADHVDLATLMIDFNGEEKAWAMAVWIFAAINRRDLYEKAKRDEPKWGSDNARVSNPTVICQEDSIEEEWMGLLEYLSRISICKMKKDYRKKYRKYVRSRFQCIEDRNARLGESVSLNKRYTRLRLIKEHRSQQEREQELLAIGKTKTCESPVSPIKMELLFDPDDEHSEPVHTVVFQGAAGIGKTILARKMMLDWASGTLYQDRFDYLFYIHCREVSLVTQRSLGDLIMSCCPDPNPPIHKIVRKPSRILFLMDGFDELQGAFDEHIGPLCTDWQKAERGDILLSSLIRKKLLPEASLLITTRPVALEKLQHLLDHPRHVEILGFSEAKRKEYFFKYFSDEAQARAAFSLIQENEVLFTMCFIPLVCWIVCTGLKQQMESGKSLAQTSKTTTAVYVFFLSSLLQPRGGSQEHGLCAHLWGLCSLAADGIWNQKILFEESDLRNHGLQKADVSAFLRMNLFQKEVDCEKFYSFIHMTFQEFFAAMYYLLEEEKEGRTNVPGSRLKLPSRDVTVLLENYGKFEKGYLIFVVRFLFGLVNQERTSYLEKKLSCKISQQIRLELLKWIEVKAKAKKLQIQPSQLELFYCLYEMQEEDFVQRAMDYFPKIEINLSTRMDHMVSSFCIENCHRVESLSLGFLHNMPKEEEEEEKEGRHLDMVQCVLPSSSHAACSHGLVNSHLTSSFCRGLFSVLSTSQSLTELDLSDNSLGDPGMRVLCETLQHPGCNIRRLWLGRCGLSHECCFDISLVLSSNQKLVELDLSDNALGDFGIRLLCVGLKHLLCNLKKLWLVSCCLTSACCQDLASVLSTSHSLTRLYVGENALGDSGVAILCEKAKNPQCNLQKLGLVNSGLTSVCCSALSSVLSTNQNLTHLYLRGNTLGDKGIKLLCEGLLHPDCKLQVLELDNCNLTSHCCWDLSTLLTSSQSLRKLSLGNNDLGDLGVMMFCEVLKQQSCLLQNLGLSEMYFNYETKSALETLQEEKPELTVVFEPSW

Row | SMILES | Activity (THP-1 [1]) | viability at 24 h, 10 µM [2] | Activity [3] | Activity (THP-1 [4]) | viability at 24 h, 0.1 µM [5] | Activity (THP-1 [6]) | viability at 24 h, 100 µM [7] | Activity [8] | viability at 24 h, up to 100 µM [9] | Activity [10] | Activity (THP-1 [11]) | inhibition [12] | inhibition [13] | Activity [14] | inhibition [15] | Activity [16] | viability at 24 h, 1 µM [17]
1 | CC(C)(O)c1coc(S(=O)(=O)NC(=O)Nc2c3c(cc4c2CCC4)CCC3)c1 | 957.6 pg/mL |  |  |  |  |  |  |  |  |  |  |  |  |  |  |  | 
2 | C=C(C)[C@@H]1CCC(C)=C[C@H]1c1c(O)cc(CCCCC)cc1O [CANNABIDIOL] | 661.9 pg/mL | 103% | 16.1% | inactive | 96.5% | inactive | 99.9% | 13.1% | > 97% | 20% | 32.9 pg/mL | 83.1% | 63.9% | 16% | 64.1% | 12.4% | 97.6%
3 | C=C1C(=O)[C@]23[C@H](O)[C@H]1CC[C@H]2[C@@]12CO[C@]3(O)[C@@H](O)[C@@H]1C(C)(C)CC[C@@H]2O [ORIDONIN] | 777.2 pg/mL |  |  |  |  |  |  |  |  |  |  |  |  |  |  |  | 
